Data reported in US20260240851A1, “Treatment of Parkinson's Disease in a Patient Using a Glucocerebrosidase Activator” (BIAL - R&D Investments, S.A., priority 2023, published 2026).
Where two headings read alike, the source gives them in different places.

Experiments:
[1] = test system: GluCer, GluSph and LacCer in plasma, PBMCs and CSF; test: LTI-291-002: glycolipid biomarkers; assay type: in vivo, human; settings: healthy subjects
Experimental: This study was a phase 1, randomized, double-blind, placebo-controlled, multiple ascending dose study of Compound A in 4 cohorts of middle-aged to elderly healthy participants (aged 52 to 75 years). […] A total of 39 healthy subjects were enrolled in 4 sequential cohorts. Subjects in each cohort received once-daily oral doses of 3 mg (n=7), 10 mg (n=8), 30 mg (n=8), or 60 mg (n=8) Compound A or placebo (n=8) for 14 days. Pharmacokinetic parameters were determined for each dose at Day 1, Day 7, and Day 14. Cerebrospinal fluid samples for Compound A concentrations were measured before the first dose and 4 hours after the last dose for each dose level. GluCer, glucosyl sphingosine (GluSph), and lactosyl-ceramide (LacCer) were measured in plasma, PBMCs, and CSF as biomarkers of pharmacological effects. Pharmacodynamic measurements consisted of battery of CNS (NeuroCart®) assessments including Saccadic Eye Movements, Smooth Pursuit Eye Movements, Adaptive Tracking, Body Sway, Visual Verbal Learning Test, and pharmaco-EEG.

[2] = BIA 28-6156-106: safety and tolerability; assay type: in vivo, human
Experimental: This was a Phase 1, single-dose, mass balance recovery study of ^14C-Compound A in 1 cohort of healthy male subjects, aged 30 to 65 years. A total of 6 subjects received a single oral dose of 60 mg Compound A, containing not more than 3.7 MBq ^14C, under fasted conditions. Objectives included determining the routes and rates of elimination of ^14C-Compound A, identifying the structure of metabolites that account for more than 10% of circulating total radioactivity in plasma and total radioactive dose in urine and feces, exploring the PK of Compound A, evaluating the extent of distribution of TR into blood cells, and gathering additional safety and tolerability information for Compound A.

[3] = after 6 days of dosing with 60 mg, Sinemet portion
Experimental: (§1) This was a Phase 1, non-randomized, open-label, 2-cohort, cross-over, DDI study in healthy male and female subjects.
(§2) In Cohort 1, a single oral dose 100 mg/25 mg levodopa-carbidopa (Sinemet®) IR was administered alone on Day 1.

[4] = BIA 28-6156-107 DDI: effect of multiple-dose carbamazepine on single-dose PK of Compound A; assay type: in vivo, human; settings: for Tmax / half-life: both sexes, human, in vivo, oral; for Tmax: read-out: Median Tmax; for half-life: read-out: geometric mean t1/2 (converted)
clinical = settings: both, human, plasma, 60 mg; for AUC(0-t): Sinemet portion, geometric mean
Experimental: as §1, §2

[5] = LTI-291-001 single ascending dose study: plasma pharmacokinetics and food effect; assay type: in vivo, human; settings: for Vd/F: read-out: Vz/F
Experimental: This study was a first-in-human Phase 1, randomized, double-blind, placebo-controlled, single-ascending dose study to evaluate the safety and tolerability, PK, and PD of escalating single oral doses of Compound A (3, 10, 30, and 90 mg) in 4 cohorts of healthy subjects. A total of 32 subjects received a single oral dose of Compound A (8 per dose group) and 8 subjects received placebo. The effect of food on the PK of Compound A was evaluated by administering a second single oral dose of 10 mg Compound A to the subjects in Cohort 2 on a separate occasion, after subjects had completed a high-fat breakfast. Blood samples for Compound A PK were collected up to 48 hours after each dose.

[6] = Compound A + carbamazepine vs Compound A alone
[7] = 60 mg Compound A administered alone
[8] = 3 mg fasted, single oral dose, geometric mean
[9] = 10 mg fasted, single oral dose, geometric mean
[10] = 10 mg fed, single oral dose, geometric mean
[11] = 10 mg, high-fat breakfast vs fasted
[12] = 30 mg fasted, single oral dose, geometric mean
[13] = 90 mg fasted, single oral dose, geometric mean
[14] = human, plasma, po, 3 mg, 3 mg fasted, single oral dose, geometric mean
[15] = human, plasma, po, 10 mg, 10 mg fasted, single oral dose, geometric mean
[16] = human, plasma, po, 10 mg, 10 mg fed, single oral dose, geometric mean
[17] = human, plasma, po, 30 mg, 30 mg fasted, single oral dose, geometric mean
[18] = human, plasma, po, 90 mg, 90 mg fasted, single oral dose, geometric mean

For `CCCCCO[C@H]1CC[C@H](NC(=O)c2cnn3c(C)cc(C)nc23)CC1` [Compound A, 5,7-dimethyl-N-((1S*,4S)-4-(pentyloxy)cyclohexyl)pyrazolo[1,5-a]pyrimidine-3-carboxamide], the “consistent pharmacodynamic effect on glycolipids” value ([1]; 14 days of dosing) was “not observed”, the “GluCer and LacCer variables in CSF” value ([1]; 14 days) was “sporadic, statistically significant decreases” and the “GluCer and LacCer variables in plasma and PBMCs” value ([1]; 14 days) was “Sporadic, statistically significant increases”. For the same compound, the “vital signs, laboratory safety assessments, ECG parameters” value ([2]; in vivo) was “no clinically significant safety observations”, the “relatedness of AEs” value ([2]; investigator assessment) was “unrelated to the IMP” and the “deaths, SAEs, severe AEs, discontinuations due to AEs” value ([2]; single 60 mg dose) was “No deaths, other SAEs, severe AEs, or discontinuations due to AEs”. The “subjects reporting mild headaches” value ([2]; single 60 mg dose) was 33.3%, the “subjects reporting moderate tinea cruris” value ([2]; single 60 mg dose) was 16.7% and the “subjects reporting AEs” value ([2]; single 60 mg dose, 6 subjects) was 50.0%. For the same compound, the “steady state concentrations of Compound A” value [3] was “appeared not to have been reached”, the “AUC0-inf ratio of geometric least squares means (point estimate)” value [4, 6] was 0.363 and the “AUC0-last ratio of geometric least squares means (point estimate)” value [4, 6] was 0.367. For the same compound, the “Cmax ratio of geometric least squares means (point estimate)” value [4, 6] was 0.877, the Tmax [4, 7] was 1 h and the half-life [4, 7] was 28 h. For the same compound, the Tmax ([4]; 60 mg Compound A coadministered with carbamazepine) was 2 h, the half-life ([4]; Compound A coadministered with carbamazepine) was 12 h and the “reduction of AUC0-inf” value ([4]; with carbamazepine vs alone) was 64%. For the same compound, the “reduction of AUC0-last” value ([4]; with carbamazepine vs alone) was 63%, the “reduction of Cmax” value ([4]; with carbamazepine vs alone) was “approximately 12%” and the Cmax (clinical) was 1940 ng/mL. The Tmax (clinical) was 2 h, the AUC(0-t) (clinical; AUC0-24, 60 mg Compound A alone) was 22800 ng·h/mL and the AUC(0-t) (clinical; AUC0-t, 60 mg Compound A alone) was 22700 ng·h/mL. It also gave an AUC0-inf/dose [5, 8] of 754 ng·h/mL/mg, a Cmax/dose [5, 8] of 36.4 ng/mL/mg and an AUC0-inf/dose [5, 9] of 756 ng·h/mL/mg. It also gave a Cmax/dose [5, 9] of 32.8 ng/mL/mg, a Tmax ([5]; 10 mg fasted, single oral dose, median) of 1.01 h and an AUC0-inf/dose [5, 10] of 853 ng·h/mL/mg. For the same compound, the Cmax/dose [5, 10] was 23.4 ng/mL/mg, the “ratio of geometric means fed to fasting, AUC0-inf” value [5, 11] was 111% and the “ratio of geometric means fed to fasting, AUC0-last” value [5, 11] was 103%. The “ratio of geometric means fed to fasting, Cmax” value [5, 11] was 71.3%, the AUC0-inf/dose [5, 12] was 821 ng·h/mL/mg and the Cmax/dose [5, 12] was 32.0 ng/mL/mg. For the same compound, the AUC0-inf/dose [5, 13] was 704 ng·h/mL/mg, the Cmax/dose [5, 13] was 29.4 ng/mL/mg and the “total exposure (Cmax and AUC0-inf) versus dose” value ([5]; entire dose range 3-90 mg) was “increase in a dose proportional manner”. For the same compound, the half-life ([5]; human, plasma, oral, across fasted and fed groups, read-out: Geometric mean t1/2) was 21.2 to 23.4 h, the Tmax ([5]; human, plasma, oral, single dose 3-90 mg, fasted, medians across dose groups, read-out: median Tmax) was 1 to 3 h and the Tmax ([5]; human, plasma, oral, single dose 3-90 mg, fasted, minimum to maximum, read-out: Tmax, range) was 1 to 8.2 h. It also gave an AUC(0-inf) [5, 14] of 2260 ng·h/mL, an AUC(0-t) [5, 14] of 1560 ng·h/mL and a Cmax [5, 14] of 109 ng/mL. For the same compound, the Vd/F [5, 14] was 40.5 L, the half-life ([5]; human, plasma, po, 3 mg, 3 mg fasted, single oral dose, geometric mean, read-out: t1/2 (converted)) was 21.2 h and the Tmax ([5]; human, plasma, po, 3 mg, 3 mg fasted, single oral dose, median, read-out: Tmax) was 1.48 h. The AUC(0-inf) [5, 15] was 7560 ng·h/mL, the AUC(0-t) [5, 15] was 5690 ng·h/mL and the Cmax [5, 15] was 328 ng/mL. For the same compound, the Vd/F [5, 15] was 42.4 L, the half-life ([5]; human, plasma, po, 10 mg, 10 mg fasted, single oral dose, geometric mean, read-out: t1/2 (converted)) was 22.2 h and the Tmax ([5]; human, plasma, po, 10 mg, 10 mg fasted, single oral dose, median, read-out: Tmax) was 1 h. It also gave an AUC(0-inf) [5, 16] of 8530 ng·h/mL, an AUC(0-t) [5, 16] of 5860 ng·h/mL and a Cmax [5, 16] of 234 ng/mL. For the same compound, the Vd/F [5, 16] was 39.6 L, the half-life ([5]; human, plasma, po, 10 mg, 10 mg fed, single oral dose, geometric mean, read-out: t1/2 (converted)) was 23.4 h and the Tmax ([5]; human, plasma, po, 10 mg, 10 mg fed, single oral dose, median, read-out: Tmax) was 8 h. It also gave an AUC(0-inf) [5, 17] of 24600 ng·h/mL, an AUC(0-t) [5, 17] of 18400 ng·h/mL and a Cmax [5, 17] of 961 ng/mL. It also gave a Vd/F [5, 17] of 40.8 L, a half-life ([5]; human, plasma, po, 30 mg, 30 mg fasted, single oral dose, geometric mean, read-out: t1/2 (converted)) of 23.2 h and a Tmax ([5]; human, plasma, po, 30 mg, 30 mg fasted, single oral dose, median, read-out: Tmax) of 3.02 h. The AUC(0-inf) [5, 18] was 63400 ng·h/mL, the AUC(0-t) [5, 18] was 47800 ng·h/mL and the Cmax [5, 18] was 2640 ng/mL. It also gave a Vd/F [5, 18] of 47.7 L, a half-life ([5]; human, plasma, po, 90 mg, 90 mg fasted, single oral dose, geometric mean, read-out: t1/2 (converted)) of 23.3 h and a Tmax ([5]; human, plasma, po, 90 mg, 90 mg fasted, single oral dose, median, read-out: Tmax) of 2 h.
